The results in this text go back to patent US10759813B2, “Neprilysin inhibitors” (THERAVANCE BIOPHARMA R&D IP, LLC, priority 2010, dated 2020).

As usually defined, the Ki is the dissociation constant of the complex between target and ligand, obtained from inhibition or displacement. Usually pKi stands for the negative decadic logarithm of the Ki, by convention in mol/L.

Some results are limits rather than exact numbers.

human neprilysin (EC 3.4.24.11; NEP), sequence (P08473 52-750): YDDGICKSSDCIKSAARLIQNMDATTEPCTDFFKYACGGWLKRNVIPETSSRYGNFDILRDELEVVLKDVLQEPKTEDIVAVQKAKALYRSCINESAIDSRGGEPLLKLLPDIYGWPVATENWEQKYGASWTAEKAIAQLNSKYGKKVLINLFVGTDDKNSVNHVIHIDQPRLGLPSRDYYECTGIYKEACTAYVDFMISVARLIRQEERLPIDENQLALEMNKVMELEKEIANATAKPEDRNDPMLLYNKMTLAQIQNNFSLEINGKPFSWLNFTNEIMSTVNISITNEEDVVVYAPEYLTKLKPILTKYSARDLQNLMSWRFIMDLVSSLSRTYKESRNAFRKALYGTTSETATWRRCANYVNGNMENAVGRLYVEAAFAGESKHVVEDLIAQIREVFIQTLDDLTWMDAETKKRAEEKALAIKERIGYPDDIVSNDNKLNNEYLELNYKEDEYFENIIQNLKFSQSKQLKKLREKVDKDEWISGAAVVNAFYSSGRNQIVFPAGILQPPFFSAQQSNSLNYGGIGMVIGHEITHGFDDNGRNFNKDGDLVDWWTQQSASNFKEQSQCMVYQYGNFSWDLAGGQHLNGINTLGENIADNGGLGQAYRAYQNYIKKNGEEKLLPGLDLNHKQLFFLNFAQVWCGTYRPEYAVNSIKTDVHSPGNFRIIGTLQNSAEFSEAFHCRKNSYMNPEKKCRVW

The experiment addresses human neprilysin (EC 3.4.24.11; NEP) (Homo sapiens (Human), UniProt P08473). The experiment is described as follows: In vitro enzyme inhibition assay at human NEP (fluorogenic peptide substrate). To be noted: pKi values at human NEP, recombinant human NEP. The class given is biochemical. In short, it runs like this: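 Recombinant human NEP preincubated 30 min at 37 °C with compound (10 μM down to pM), then 10 μM Mca-D-Arg-Arg-Leu-Dap-(Dnp)-OH in 50 mM HEPES pH 7.5, 100 mM NaCl, 0.01% Tween-20, 10 μM ZnSO4. Stopped after 20 min with acetic acid; fluorescence Ex320/Em405; Ki by nonlinear fit, reported as pKi.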
For `CCCNC(=O)c1cc(C(=O)N[C@H](Cc2ccc(-c3ccccc3)cc2)CC(O)C(=O)O)[nH]n1` (stereo partly drawn) [Example 15-61, (R)-5-Biphenyl-4-yl-2-hydroxy-4-[(5-propylcarbamoyl-2H-pyrazole-3-carbonyl)-amino]pentanoic acid], the Ki is not above 1 nM. On to `CN(C)C(=O)c1cc(C(=O)N[C@H](Cc2ccc(-c3ccccc3)cc2)C[C@@H](O)C(=O)O)[nH]n1` [Example 15-63, (2R,4R)-5-Biphenyl-4-yl-4-[(5-dimethylcarbamoyl-2H-pyrazole-3-carbonyl)-amino]-2-hydroxy-pentanoic acid], for which the pKi is not below 9.0. `CC(C)CN(C)C(=O)c1cc(C(=O)N[C@H](Cc2ccc(-c3ccccc3)cc2)C[C@H](O)C(=O)O)[nH]n1` [Example 15-65, (2S,4R)-5-Biphenyl-4-yl-2-hydroxy-4-{[5-(isobutylmethyl-carbamoyl)-2H-pyrazole-3-carbonyl]amino}-pentanoic acid]: the Ki was 12.6 to 100 nM.

Regarding `CC(C)CN(C)C(=O)c1cc(C(=O)N[C@H](Cc2ccc(-c3ccccc3)cc2)C[C@@H](O)C(=O)O)[nH]n1` [Example 15-67, (2R,4R)-5-Biphenyl-4-yl-2-hydroxy-4-{[5-(isobutylmethyl-carbamoyl)-2H-pyrazole-3-carbonyl]amino}-pentanoic acid], the pKi is not below 9.0.

On to `O=C(NCCc1cnc[nH]1)c1cc(C(=O)N[C@H](Cc2ccc(-c3ccccc3)cc2)C[C@@H](O)C(=O)O)[nH]n1` [Example 15-69, (2R,4R)-5-Biphenyl-4-yl-2-hydroxy-4-({5-[2-(3H-imidazol-4-yl)-ethylcarbamoyl]-2H-pyrazole-3-carbonyl}amino)pentanoic acid], for which the Ki was 12.6 to 100 nM. Consider `O=C(NCCO)c1cc(C(=O)N[C@H](Cc2ccc(-c3ccccc3)cc2)CC(O)C(=O)O)[nH]n1` (stereo partly drawn) [Example 15-70, (R)-5-Biphenyl-4-yl-2-hydroxy-4-{[5-(2-hydroxy-ethylcarbamoyl)-2H-pyrazole-3-carbonyl]-amino}-pentanoic acid], for which the inhibition constant (Ki) was 1.26 to 10 nM. Turning to `CN(C)CCNC(=O)c1cc(C(=O)N[C@H](Cc2ccc(-c3ccccc3)cc2)CC(O)C(=O)O)[nH]n1` (stereo partly drawn) [Example 15-71, (R)-5-Biphenyl-4-yl-4-{[5-(2-dimethylamino-ethylcarbamoyl)-2H-pyrazole-3-carbonyl]-amino}-2-hydroxy-pentanoic acid], the inhibition constant Ki is 1.26 to 10 nM. Regarding `O=C(N[C@H](Cc1ccc(-c2ccccc2)cc1)CC(O)C(=O)O)c1cc(C2CC2)n[nH]1` (stereo partly drawn) [Example 15-72, (R)-5-Biphenyl-4-yl-4-[(5-cyclopropyl-2H-pyrazole-3-carbonyl)-amino]-2-hydroxy-pentanoic acid], the inhibition constant (Ki) was 12.6 to 100 nM.

As to `CC(C)c1cc(C(=O)N[C@H](Cc2ccc(-c3ccccc3)cc2)CC(O)C(=O)O)[nH]n1` (stereo partly drawn) [Example 15-73, (R)-5-Biphenyl-4-yl-2-hydroxy-4-[(5-isopropyl-2H-pyrazole-3-carbonyl)amino]-pentanoic acid], the Ki is 12.6 to 100 nM. Consider `CCCc1cc(C(=O)N[C@H](Cc2ccc(-c3ccccc3)cc2)CC(O)C(=O)O)[nH]n1` (stereo partly drawn) [Example 15-74, (R)-5-Biphenyl-4-yl-2-hydroxy-4-[(5-propyl-2H-pyrazole-3-carbonyl)amino]-pentanoic acid], for which the Ki is 12.6 to 100 nM. On to `CCCCc1cc(C(=O)N[C@H](Cc2ccc(-c3ccccc3)cc2)CC(O)C(=O)O)[nH]n1` (stereo partly drawn) [Example 15-75, (R)-5-Biphenyl-4-yl-4-[(5-butyl-2H-pyrazole-3-carbonyl)-amino]-2-hydroxy-pentanoic acid], for which the inhibitory constant (Ki) was 1.26 to 10 nM.

As for `O=C(N[C@H](Cc1ccc(-c2ccccc2)cc1)CC(O)C(=O)O)c1cc(-c2ccccc2)n[nH]1` (stereo partly drawn) [Example 15-76, (R)-5-Biphenyl-4-yl-2-hydroxy-4-[(5-phenyl-2H-pyrazole-3-carbonyl)-amino]-pentanoic acid], the Ki is 1.26 to 10 nM. As to `COc1ccccc1-c1cc(C(=O)N[C@H](Cc2ccc(-c3ccccc3)cc2)C[C@@H](O)C(=O)O)[nH]n1` [Example 15-79, (2R,4R)-5-Biphenyl-4-yl-2-hydroxy-4-{[5-(2-methoxy-phenyl)-2H-pyrazole-3-carbonyl]-amino}-pentanoic acid], the pKi is given as not below 9.0. Regarding `COc1ccc(OC)c(-c2cc(C(=O)N[C@H](Cc3ccc(-c4ccccc4)cc3)C[C@@H](O)C(=O)O)[nH]n2)c1` [Example 15-80, (2R,4R)-5-Biphenyl-4-yl-4-{[5-(2,5-dimethoxy-phenyl)-2H-pyrazole-3-carbonyl]-amino}-2-hydroxy-pentanoic acid], the pKi is listed as not below 9.0. Consider `O=C(N[C@H](Cc1ccc(-c2ccccc2)cc1)CC(O)C(=O)O)c1cc(-c2ccccc2C(F)(F)F)n[nH]1` (stereo partly drawn) [Example 15-81, (R)-5-Biphenyl-4-yl-2-hydroxy-4-{[5-(2-trifluoromethyl-phenyl)-2H-pyrazole-3-carbonyl]-amino}-pentanoic acid], for which the Ki was 12.6 to 100 nM.

On to `O=C(N[C@H](Cc1ccc(-c2ccccc2)cc1)CC(O)C(=O)O)c1cc(-c2ccc(F)cc2)n[nH]1` (stereo partly drawn) [Example 15-82, (R)-5-Biphenyl-4-yl-4-{[5-(4-fluorophenyl)-2H-pyrazole-3-carbonyl]amino}-2-hydroxy-pentanoic acid], for which the Ki was 1.26 to 10 nM.

Regarding `O=C(NC(Cc1ccc(-c2ccccc2)cc1)C[C@@H](O)C(=O)O)c1cc(-c2ccc(Cl)cc2)n[nH]1` (stereo partly shown) [Example 15-83], the pKi is not below 9.0. Still for that read-out and setting: as for `O=C(N[C@H](Cc1ccc(-c2ccccc2)cc1)C[C@@H](O)C(=O)O)c1cc(-c2ccccc2Cl)n[nH]1` [Example 15-84, (2R,4R)-5-Biphenyl-4-yl-4-{[5-(2-chlorophenyl)-2H-pyrazole-3-carbonyl]amino}-2-hydroxy-pentanoic acid], the figure is not below 9.0; as for `COc1ccc(F)cc1-c1cc(C(=O)N[C@H](Cc2ccc(-c3ccccc3)cc2)C[C@@H](O)C(=O)O)[nH]n1` [Example 15-86, (2R,4R)-5-Biphenyl-4-yl-4-{[5-(5-fluoro-2-methoxy-phenyl)-2H-pyrazole-3-carbonyl]-amino}-2-hydroxy-pentanoic acid], not below 9.0.

With `Cc1ccc(-c2cc(C(=O)N[C@H](Cc3ccc(-c4ccccc4)cc3)C[C@@H](O)C(=O)O)[nH]n2)s1` [Example 15-89, (2R,4R)-5-Biphenyl-4-yl-2-hydroxy-4-{[5-(5-methylthiophen-2-yl)-2H-pyrazole-3-carbonyl]-amino}-pentanoic acid], the pKi is not below 9.0.

In the case of `O=C(N[C@H](Cc1ccc(-c2ccccc2)cc1)C[C@@H](O)C(=O)O)c1cc(-c2ccc(Cl)s2)n[nH]1` [Example 15-90, (2R,4R)-5-Biphenyl-4-yl-4-{[5-(5-chlorothiophen-2-yl)-2H-pyrazole-3-carbonyl]-amino}-2-hydroxy-pentanoic acid], the pKi is reported as not below 9.0. Turning to `CCC(=O)Nc1cc(C(=O)N[C@H](Cc2ccc(-c3ccccc3)cc2)CC(O)C(=O)O)[nH]n1` (stereo partly drawn) [Example 15-91, (R)-5-Biphenyl-4-yl-2-hydroxy-4-[(5-propionylamino-2H-pyrazole-3-carbonyl)-amino]-pentanoic acid], the Ki was 12.6 to 100 nM. Turning to `CCCCC(=O)Nc1cc(C(=O)N[C@H](Cc2ccc(-c3ccccc3)cc2)CC(O)C(=O)O)[nH]n1` (stereo partly drawn) [Example 15-92, (R)-5-Biphenyl-4-yl-2-hydroxy-4-[(5-pentanoylamino-2H-pyrazole-3-carbonyl)-amino]-pentanoic acid], the Ki is 12.6 to 100 nM.

With `CCOC(=O)Nc1cc(C(=O)N[C@H](Cc2ccc(-c3ccccc3)cc2)CC(O)C(=O)O)[nH]n1` (stereo partly drawn) [Example 15-93, (R)-5-Biphenyl-4-yl-4-[(5-ethoxycarbonylamino-2H-pyrazole-3-carbonyl)-amino]-2-hydroxy-pentanoic acid], the Ki is 12.6 to 100 nM. On to `COCC(=O)Nc1cc(C(=O)N[C@H](Cc2ccc(-c3ccccc3)cc2)CC(O)C(=O)O)[nH]n1` (stereo partly drawn) [Example 15-94, (R)-5-Biphenyl-4-yl-2-hydroxy-4-{[5-(2-methoxy-acetylamino)-2H-pyrazole-3-carbonyl]-amino}-pentanoic acid], for which the Ki is 12.6 to 100 nM.

On to `COc1ccccc1C(=O)Nc1cc(C(=O)N[C@H](Cc2ccc(-c3ccccc3)cc2)CC(O)C(=O)O)[nH]n1` (stereo partly drawn) [Example 15-95, (R)-5-Biphenyl-4-yl-2-hydroxy-4-{[5-(2-methoxy-benzoylamino)-2H-pyrazole-3-carbonyl]-amino}-pentanoic acid], for which the Ki was 1.26 to 10 nM. `O=C(N[C@H](Cc1ccc(-c2ccccc2)cc1)C[C@@H](O)C(=O)O)c1cc(NC(=O)c2ccccc2Cl)n[nH]1` [Example 15-96, (2R,4R)-5-Biphenyl-4-yl-4-{[5-(2-chlorobenzoylamino)-2H-pyrazole-3-carbonyl]-amino}-2-hydroxy-pentanoic acid]: the pKi is given as not below 9.0.

Take `O=C(Nc1cc(C(=O)N[C@H](Cc2ccc(-c3ccccc3)cc2)CC(O)C(=O)O)[nH]n1)c1ccccn1` (stereo partly drawn) [Example 15-100, (R)-5-Biphenyl-4-yl-2-hydroxy-4-({5-[(pyridine-2-carbonyl)-amino]-2H-pyrazole-3-carbonyl}-amino)-pentanoic acid]: the Ki is 1.26 to 10 nM. In the case of `Nc1cc(C(=O)N[C@H](Cc2ccc(-c3ccccc3)cc2)CC(O)C(=O)O)n[nH]1` (stereo partly drawn) [Example 15-101, (R)-4-[(5-Amino-2H-pyrazole-3-carbonyl)-amino]-5-biphenyl-4-yl-2-hydroxy-pentanoic acid], the Ki was 12.6 to 100 nM. `O=C(N[C@H](Cc1ccc(-c2ccccc2)cc1)C[C@@H](O)C(=O)O)c1cc(-c2ccccn2)n[nH]1` [Example 15-102, (2R,4R)-5-Biphenyl-4-yl-2-hydroxy-4-[(5-pyridin-2-yl-2H-pyrazole-3-carbonyl)-amino]-pentanoic acid]: the Ki was not above 1 nM. Regarding `O=C(N[C@H](Cc1ccc(-c2ccccc2)cc1)C[C@@H](O)C(=O)O)c1cc(-c2cnccn2)n[nH]1` [Example 15-106, (2R,4R)-5-Biphenyl-4-yl-2-hydroxy-4-[(5-pyrazin-2-yl-2H-pyrazole-3-carbonyl)-amino]pentanoic acid], the inhibitory constant (Ki) is 1.26 to 10 nM.
